Target: factor Xa (Homo sapiens, UniProt P00742)
Assay: Inhibitory action towards factor Xa activity (methods of WO0216312)
Assay type: biochemical
Conditions: read-out: IC50 value (factor Xa inhibition)
Experimental: Determinations of the inhibitory action towards factor Xa activity were carried out in accordance with the methods described in WO0216312.

factor Xa, sequence (P00742 235-488 limits assumed): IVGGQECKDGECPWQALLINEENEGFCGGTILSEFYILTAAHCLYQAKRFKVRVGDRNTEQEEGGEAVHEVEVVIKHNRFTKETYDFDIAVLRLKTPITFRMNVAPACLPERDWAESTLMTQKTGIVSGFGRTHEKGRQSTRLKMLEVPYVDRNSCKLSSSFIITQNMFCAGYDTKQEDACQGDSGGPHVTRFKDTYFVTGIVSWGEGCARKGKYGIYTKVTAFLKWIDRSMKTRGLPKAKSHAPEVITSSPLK
factor Xa, sequence (P00742 41-179 partner limits assumed): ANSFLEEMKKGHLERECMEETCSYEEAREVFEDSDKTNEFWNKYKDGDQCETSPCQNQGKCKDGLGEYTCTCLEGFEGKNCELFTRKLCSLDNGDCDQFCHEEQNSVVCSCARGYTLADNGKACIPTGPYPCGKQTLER

**Q.** CN1CCN(C(=O)CNC(=O)C(Nc2cccc(C(=N)N)c2)c2ccccc2O[C@@H]2O[C@H](CO)[C@@H](O)[C@H](O)[C@H]2O)CC1 (single isomer, unassigned) [Example 1, 2-(3-Carbamimidoyl-phenylamino)-N-[2-(4-methyl-piperazin-1-yl)-2-oxo-ethyl]-2-[2-(3,4,5-trihydroxy-6-hydroxymethyl-tetrahydro-pyran-2-yloxy)-phenyl]-acetamide] was tested. Which IC50 did it give?
**A.** Its IC50 is 0.1 to 10 nM.

Source: US20080051388A1, “Novel Compounds That Inhibit Factor Xa Activity” (Morphochem Aktiengesellschaft Fur Kombinatorische Chemie, priority 2004, published 2008)
